Assay results from ChEMBL document CHEMBL4184253, “Design, synthesis, and structure-activity relationships of new benzofuro[3,2-b]pyridin-7-ols as DNA topoisomerase II inhibitors” (Bioorg Med Chem Lett, 2018).
Counter-ions that a name gives are not always drawn. Activity calls are given as the source filed them. No cut-off for these calls is given here.

Key:
[1] = biological target: DNA topoisomerase 2-alpha (Homo sapiens) (UniProt P11388); experiment: Inhibition of human recombinant topoisomerase-2alpha assessed as inhibition of relaxation of supercoiled pBR322 plasmid DNA at 100 uM measured after 1 hr by ethidium bromide staining based agarose gel electrophoresis relative to control
Chain of DNA topoisomerase 2-alpha (Homo sapiens) (P11388 whole entry): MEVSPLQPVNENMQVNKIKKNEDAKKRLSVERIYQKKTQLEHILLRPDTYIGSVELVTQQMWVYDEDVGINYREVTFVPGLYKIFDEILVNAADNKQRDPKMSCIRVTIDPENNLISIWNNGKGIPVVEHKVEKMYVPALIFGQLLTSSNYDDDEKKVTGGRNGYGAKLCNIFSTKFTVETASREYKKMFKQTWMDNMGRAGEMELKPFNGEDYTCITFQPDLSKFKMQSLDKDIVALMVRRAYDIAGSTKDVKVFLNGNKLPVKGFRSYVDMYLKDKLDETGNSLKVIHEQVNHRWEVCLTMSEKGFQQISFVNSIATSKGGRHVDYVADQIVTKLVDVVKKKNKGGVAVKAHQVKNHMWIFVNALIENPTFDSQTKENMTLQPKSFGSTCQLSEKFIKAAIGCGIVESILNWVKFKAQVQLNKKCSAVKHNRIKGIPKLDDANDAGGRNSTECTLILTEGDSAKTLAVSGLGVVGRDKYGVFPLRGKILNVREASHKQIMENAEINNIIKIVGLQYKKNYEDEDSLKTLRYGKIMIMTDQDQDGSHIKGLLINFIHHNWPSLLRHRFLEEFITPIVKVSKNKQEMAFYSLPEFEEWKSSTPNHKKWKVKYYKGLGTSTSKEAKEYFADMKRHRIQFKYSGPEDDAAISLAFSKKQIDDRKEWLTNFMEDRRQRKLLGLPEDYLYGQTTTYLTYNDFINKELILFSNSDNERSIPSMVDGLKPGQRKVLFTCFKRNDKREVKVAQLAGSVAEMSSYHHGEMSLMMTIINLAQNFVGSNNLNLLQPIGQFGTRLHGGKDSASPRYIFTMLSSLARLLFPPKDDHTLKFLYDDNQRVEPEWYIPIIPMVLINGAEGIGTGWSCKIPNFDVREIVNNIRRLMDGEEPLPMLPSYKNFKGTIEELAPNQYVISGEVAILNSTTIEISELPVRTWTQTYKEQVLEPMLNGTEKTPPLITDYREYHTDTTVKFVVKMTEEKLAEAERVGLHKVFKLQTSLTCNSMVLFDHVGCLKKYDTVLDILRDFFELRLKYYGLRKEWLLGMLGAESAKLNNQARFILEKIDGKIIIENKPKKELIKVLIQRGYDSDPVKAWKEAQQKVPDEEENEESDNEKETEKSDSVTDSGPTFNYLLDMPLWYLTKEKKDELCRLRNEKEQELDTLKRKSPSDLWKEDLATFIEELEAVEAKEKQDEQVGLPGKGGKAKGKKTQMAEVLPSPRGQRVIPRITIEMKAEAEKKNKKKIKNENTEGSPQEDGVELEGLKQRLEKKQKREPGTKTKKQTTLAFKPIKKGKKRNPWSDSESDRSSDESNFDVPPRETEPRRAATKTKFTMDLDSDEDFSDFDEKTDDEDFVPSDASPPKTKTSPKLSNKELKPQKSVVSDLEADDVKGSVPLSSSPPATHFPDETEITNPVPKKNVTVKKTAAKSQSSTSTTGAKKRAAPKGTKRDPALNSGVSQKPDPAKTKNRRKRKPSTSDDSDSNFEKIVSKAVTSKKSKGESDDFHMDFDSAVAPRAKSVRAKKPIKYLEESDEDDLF

[2] = biological target: T1, DNA topoisomerase 1 (Homo sapiens) (UniProt P11387); experiment: Inhibition of human recombinant topoisomerase-1 assessed as inhibition of relaxation of supercoiled pBR322 plasmid DNA at 100 uM measured after 1 hr by ethidium bromide staining based agarose gel electrophoresis relative to control
T1 sequence (whole entry): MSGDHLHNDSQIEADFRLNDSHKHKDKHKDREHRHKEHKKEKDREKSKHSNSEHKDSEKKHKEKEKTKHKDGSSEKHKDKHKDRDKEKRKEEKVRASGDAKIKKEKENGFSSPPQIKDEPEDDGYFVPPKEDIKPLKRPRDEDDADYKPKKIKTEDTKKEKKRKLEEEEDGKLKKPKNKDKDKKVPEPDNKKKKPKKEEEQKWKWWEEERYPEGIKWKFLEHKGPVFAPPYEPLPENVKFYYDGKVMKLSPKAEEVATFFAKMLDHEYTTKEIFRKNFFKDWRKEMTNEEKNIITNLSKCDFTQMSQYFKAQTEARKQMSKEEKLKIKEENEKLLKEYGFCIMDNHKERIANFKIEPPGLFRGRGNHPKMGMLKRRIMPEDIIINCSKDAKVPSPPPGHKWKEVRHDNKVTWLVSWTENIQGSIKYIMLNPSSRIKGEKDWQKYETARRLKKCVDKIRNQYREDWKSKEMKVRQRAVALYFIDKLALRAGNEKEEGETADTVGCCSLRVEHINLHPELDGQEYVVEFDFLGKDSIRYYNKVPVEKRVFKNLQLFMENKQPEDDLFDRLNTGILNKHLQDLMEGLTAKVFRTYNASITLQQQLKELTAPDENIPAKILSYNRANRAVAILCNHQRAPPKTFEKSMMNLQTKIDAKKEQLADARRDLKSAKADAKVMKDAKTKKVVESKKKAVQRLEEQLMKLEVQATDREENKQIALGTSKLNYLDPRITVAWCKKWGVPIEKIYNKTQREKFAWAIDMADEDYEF

[3] = biological target: T1, DNA topoisomerase 1 (Homo sapiens); experiment: Inhibition of human recombinant topoisomerase-1 assessed as inhibition of relaxation of supercoiled pBR322 plasmid DNA at 20 uM measured after 1 hr by ethidium bromide staining based agarose gel electrophoresis relative to control
HCT-15 = experiment: Antiproliferative activity against human HCT15 cells incubated for 72 hrs by CCK8 assay; assay type: functional, cell-based; details: HCT-15, 72 h
T47D = experiment: Antiproliferative activity against human T47D cells incubated for 72 hrs by CCK8 assay; assay type: functional, cell-based
HeLa = experiment: Antiproliferative activity against human HeLa cells incubated for 72 hrs by CCK8 assay; assay type: functional, cell-based
[4] = biological target: DNA topoisomerase 2-alpha (Homo sapiens) (UniProt P11388); experiment: Inhibition of human recombinant topoisomerase-2alpha assessed as inhibition of relaxation of supercoiled pBR322 plasmid DNA at 100 uM measured after 1 hr by ethidium bromide staining based agarose gel electrophoresis relative to control etoposide
[5] = biological target: DNA topoisomerase 2-alpha (Homo sapiens) (UniProt P11388); experiment: Inhibition of human recombinant topoisomerase-2alpha assessed as inhibition of relaxation of supercoiled pBR322 plasmid DNA at 20 uM measured after 1 hr by ethidium bromide staining based agarose gel electrophoresis relative to control
[6] = biological target: DNA topoisomerase 2-alpha (Homo sapiens) (UniProt P11388); experiment: Inhibition of human recombinant topoisomerase-2alpha assessed as inhibition of relaxation of supercoiled pBR322 plasmid DNA at 20 uM measured after 1 hr by ethidium bromide staining based agarose gel electrophoresis relative to control etoposide

inhibition [1] [%]	inhibition [2] [%]	inhibition [3] [%]	IC50 (HCT-15) [µM]	IC50 (T47D) [µM]	IC50 (HeLa) [µM]	inhibition [4]	inhibition [5] [%]	Ratio [4]	Ratio [6]	SMILES
83.1	18.2		1.6	0.71	4.11		52.6	1.08	1.33	Oc1ccc2c(c1)oc1c(-c3ccccc3)cc(-c3ccccc3O)nc12
63	33.9	0	2.5	0.64	3.63		12	0.82	0.31	Oc1cccc(-c2cc(-c3ccccc3O)c3oc4cc(O)ccc4c3n2)c1
98	27.4		4.11	0.34	3.27		41.9	1.58	0.84	Oc1cccc(-c2cc(-c3ccccc3)nc3c2oc2cc(O)ccc23)c1
71	33.8	18.6	4.21	0.17	3.32		65.9	1.15	1.33	Oc1ccc(-c2cc(-c3ccc(O)cc3)c3oc4cc(O)ccc4c3n2)cc1
100	22.4		1.22	0.59	0.86		74.1	1.62	1.49	Oc1cccc(-c2cc(-c3cccc(O)c3)c3oc4cc(O)ccc4c3n2)c1
100	39.9	0	9.34	1.97	3.62		70.8	1.62	1.42	Oc1ccc(-c2cc(-c3ccccc3O)nc3c2oc2cc(O)ccc23)cc1
52.5	14.2		5.74	0.74	6.93		19.1	0.69	0.48	Oc1ccc2c(c1)oc1c(-c3ccccc3O)cc(-c3ccccc3)nc12
			0.51		1.5					COc1cccc2c1C(=O)c1c(O)c3c(c(O)c1C2=O)C[C@@](O)(C(=O)CO)C[C@@H]3O[C@H]1C[C@H](N)[C@H](O)[C@H](C)O1 [DOXORUBICIN HYDROCHLORIDE]

Further lines, the molecule ahead of its results:

SMILES	inhibition [1] [%]	inhibition [2] [%]	inhibition [3] [%]	IC50 (HCT-15) [µM]	IC50 (T47D) [µM]	IC50 (HeLa) [µM]	inhibition [4]	inhibition [5] [%]	Ratio [4]	Ratio [6]
Oc1ccc(-c2cc(-c3ccccc3)nc3c2oc2cc(O)ccc23)cc1	0.4	30.3	0	> 50	> 50	> 50	inactive			
Oc1ccc(-c2cc(-c3ccccc3)c3oc4cc(O)ccc4c3n2)cc1	78.4	43.9	0	> 50	5.3	> 50		72.2	1.02	1.83
Oc1ccc2c(c1)oc1c(-c3ccccc3O)cc(-c3ccccc3O)nc12	46	30.1	0	> 50	1.03	> 50		38	0.6	0.96
Oc1ccc(-c2cc(-c3cccc(O)c3)nc3c2oc2cc(O)ccc23)cc1	58.4	71.7	60.9	23.9	5.25	29.1		45.1	0.94	0.91
Oc1cccc(-c2cc(-c3ccccc3O)nc3c2oc2cc(O)ccc23)c1	99.1	25.6		6.96	1.26	3.39		76	1.6	1.53
Oc1ccc2c(c1)oc1c(-c3ccccc3)cc(-c3ccccc3)nc12	18.3	30.8	0	> 50	> 50	> 50				
Oc1ccc(-c2cc(-c3ccccc3O)c3oc4cc(O)ccc4c3n2)cc1	87.3	3.3		1.26	0.62	2.86		29	1.12	0.73
Oc1cccc(-c2cc(-c3ccccc3)c3oc4cc(O)ccc4c3n2)c1	46.3	15.9		> 50	2.79	> 50		32.5	0.6	0.82
Oc1ccc(-c2cc(-c3cccc(O)c3)c3oc4cc(O)ccc4c3n2)cc1	66.1	66.3	38.1	3.73	0.19	2.16		55.1	1.07	1.11
